# Experimental data from patent US8563601B2, “Method of managing broncho-constrictive condition” (Indus Biotech Private Limited, priority 2010, dated 2013).
# How the values were obtained:
# [1] = system: ovalbumin-induced broncho-constriction in sensitized guinea pigs; assay: In-vivo pulmonary antigen-induced sensitization study (intratracheal pressure); set-up: species or system Male Duncan Hartley derived guinea pigs; conditions: about 30 mg/kg
# Protocol: Prophylactic activity of instant composition against antigen-induced broncho-constriction is tested in sensitized guinea pigs. […] One hour after pretreatment, the guinea pigs are sensitized with intraperitoneal injection of ovalbumin (0.5 μg). A cocktail of Indomethacin (about 10 mg/kg), Mepyramine (about 2 mg/kg) and Propanolol (about 100 mg/kg) is injected about 10 mins before sensitization in order to block other mediators of broncho-blockade. Sensitized animals are anesthetized and artificially ventilated.
# [2] = Heart rate and blood pressure in the pulmonary antigen-induced sensitization study; type: in vivo, Male Duncan Hartley derived guinea pigs; conditions: guinea pigs
# Protocol: Prophylactic activity of instant composition against antigen-induced broncho-constriction is tested in sensitized guinea pigs. Male Duncan Hartley derived guinea pigs (400±50 g) are pretreated with instant composition at dose of about 100 mg/kg of body weight of the subject, administered orally. One hour after pretreatment, the guinea pigs are sensitized with intraperitoneal injection of ovalbumin (0.5 μg). A cocktail of Indomethacin (about 10 mg/kg), Mepyramine (about 2 mg/kg) and Propanolol (about 100 mg/kg) is injected about 10 mins before sensitization in order to block other mediators of broncho-blockade. Sensitized animals are anesthetized and artificially ventilated. […]
structure (smiles),measurement,setting,value
O=C1CCN(c2ccccc2)N1 [Phenidone],ΔITP Before Ovalbumin,[1]; n = 5,0 cm H2O
same,ΔITP After Ovalbumin,"[1]; n = 5, vehicle control 29.3 ± 2.2",2.3 ± 0.3 cm H2O
same,effect on blood pressure,[2]; 5 minutes after administration,reduced blood pressure
same,Blood Pressure,"[2]; measured 5 mins after administration, n = 5, vehicle control 49.4 ± 4.0",34.4 ± 1.9 mm Hg
same,Heart Rate,"[2]; measured 5 mins after administration, n = 5, vehicle control 171.2 ± 3.4",162.4 ± 4.7 beats/minute
